{
  "source": "patent US20240043442A1",
  "about": "“SELECTIVE ESTROGEN RECEPTOR DEGRADERS AND USES THEREOF” (InventisBio LLC, priority 2016, published 2024);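 on IC50 (nM), cell growth inhibition: viability read by luminescence after compound exposure, relative to DMSO vehicle-treated wells on the same plate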",
  "key": {"ER [1]": {"biological_target": "T1, ER (Homo sapiens (Human), UniProt P03372)", "T1 sequence (P03372 whole entry)": "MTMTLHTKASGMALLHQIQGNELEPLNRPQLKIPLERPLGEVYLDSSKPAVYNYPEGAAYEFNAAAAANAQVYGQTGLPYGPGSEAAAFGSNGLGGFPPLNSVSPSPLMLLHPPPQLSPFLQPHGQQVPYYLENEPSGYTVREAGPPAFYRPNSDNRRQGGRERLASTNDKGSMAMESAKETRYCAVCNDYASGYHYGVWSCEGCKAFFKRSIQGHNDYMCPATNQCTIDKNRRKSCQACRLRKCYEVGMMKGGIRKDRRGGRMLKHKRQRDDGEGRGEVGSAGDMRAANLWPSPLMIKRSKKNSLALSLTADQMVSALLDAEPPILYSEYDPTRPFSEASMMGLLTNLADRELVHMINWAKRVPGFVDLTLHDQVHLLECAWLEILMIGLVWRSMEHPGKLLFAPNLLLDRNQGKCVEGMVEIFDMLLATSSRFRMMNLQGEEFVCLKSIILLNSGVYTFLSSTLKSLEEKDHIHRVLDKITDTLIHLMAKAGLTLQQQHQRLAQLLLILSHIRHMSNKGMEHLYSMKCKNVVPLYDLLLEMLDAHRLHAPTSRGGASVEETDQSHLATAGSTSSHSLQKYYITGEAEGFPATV", "assay": "MCF-7 ER degradation assay (high content imaging)", "assay_type": "cell-based", "settings": "MCF-7 cells, 1 nM compound, DMSO control as baseline; for MCF7 ER Degradation at 4 hr (%): 4 hours treatment; for MCF7 ER Degradation at 24 hr (%): 24 hours treatment", "quoted_text": "The level of ER degradation by SERD described in this patent was analyzed by cell based high content imaging method. […] Then, 1 μL of compound solution (in DMSO) was added to the cells to make a final concentration of 1 nM per each well of treated cells. DMSO at the same final concentration (%) per each well was used to serve as negative control on each plate. After 4 hours or 24 hours of treatment at 37° C. with 5% CO2, the cells were fixed and permeabilized. Media from each well was aspirated and cells were gently washed with 1×PBS for 5 minutes and the wash procedure was repeated 3 times. Cells was then fixed with 4% formaldehyde freshly made in 1×PBS at room temperature for 20 minutes, followed by gentle washing with 1×PBS, 3 times for 5 minute each. The assay plate was incubated with 200 μl of 1×PBS containing 0.2% Triton-X100 for 5 minutes at room temperature, cells were then washed again with 1×PBS 3 times for 5 minutes each. After this, cells were incubated with the blocking buffer (1×PBS with 5% BSA) at room temperature for 1 hour. For immunostaining, blocking buffer was removed and primary anti-ER antibody (ER1D5, Santa Cruz) diluted in blocking buffer (1:400) was added to each well and cells were incubated overnight at 4° C. The next day, cells were washed with 1×PBS for 3 times with 5 minute each. […] Cells were washed with 1×PBS for 3 times with 5 minute each time. Cells were incubated with DAPI (Beyotime; 1 μg/ml) for 10 minutes and washed with 1×PBS for 3 times with 5 minute each time. […] SERD induced ER degradation in the MCF-7 cells were measured using DMSO negative control as the baseline."}, "[2]": {"assay": "Human hepatocyte clearance study", "assay_type": "in vitro ADME", "settings": "pooled cryopreserved human hepatocytes (suspension); for hepatocyte CLint at 1 µM / half-life at 1 µM: human; for hepatocyte CLint at 1 µM: read-out: Human In vitro Clint (μL/min/10^6 cells); for half-life at 1 µM: read-out: Human In vitro T1/2; for CLint scaled at 1 µM: human hepatocytes, scaling factor 2544.3, read-out: Human Scale-up Clint", "experimental": "(§1) The in vitro hepatocyte clearance of compound described here was studied using pooled human hepatocytes purchased from BioreclamationlVT (Westbury, NY, Cat #X008001, Lot #TQJ). Assay was conducted according to manufacture's instruction. Briefly, mM tock solutions of test compound and positive control (Verapamil) were prepared in 100% DMSO. Thawing media (50 mL) used in the study consists of: 31 mL Williams E medium (GIBCO Cat #12551-032); 15 mL isotonic percoll (GE Healthcare Cat #17-0891-09); 500 uL 100×GlutaMax (GIBCO Cat #35050); 750 uL HEPES (GIBCO Cat #15630-080); 2.5 mL FBS (Corning Cat #35-076-CVR); 50 uL human insulin (GIBCO Cat #12585-014) and 5 uL dexamethasone (NICPBP). Incubation media is made of Williams E medium supplemented with 1×GlutaMax. Thawing medium and supplement incubation medium (serum-free) were placed in a 37° C. water bath for at least 15 minutes prior to use. Compound stock solutions were diluted to 100 μM by combining 198 μt of 50% acetonitrile/50% water and 2 μL of 10 mM stock solution. Verapamil was use as positive control in the assay. Vials of cryopreserved hepatocytes were removed from storage and thawed in a 37° C. water bath with gentle shaking. Contents of the vial were poured into the 50 mL thawing medium conical tube. Vials were centrifuged at 100 g for 10 minutes at room temperature. Thawing medium was aspirated and hepatocytes were re-suspended with serum-free incubation medium to yield ˜1.5×10^6 cells/mL. Hepatocyte viability and density were counted using a Trypan Blue exclusion, and then cells were diluted with serum-free incubation medium to a working cell density of 0.5×10^6 viable cells/mL. Then, a portion of the hepatocytes at 0.5×10^6 viable cells/mL was boiled for 5 min prior to adding to the plate as negative control to eliminate the enzymatic activity so that little or no substrate turnover should be observed. The boiled hepatocytes were used to prepare negative samples. Aliquots of 198 μL hepatocytes were dispensed into each well of a 96-well non-coated plate. The plate was placed in the incubator on an orbital shaker at 500 rpm for approximately 10 minutes. Aliquots of 2 μL of the 100 μM test compound or positive control were added into respective wells of the non-coated 96-well plate to start the reaction. This assay was performed in duplicate. The plate was incubated in the incubator on an orbital shaker at 500 rpm for the designed time points. Twenty-five microliter of contents were transferred and mixed with 6 volumes (150 μL) of cold acetonitrile with IS (200 nM imipramine, 200 nM labetalol and 200 nM diclofenac) to terminate the reaction at time points of 0, 15, 30, 60, 90 and 120 minutes. Samples were centrifuged at 3,220 g for 25 minutes and aliquots of 150 μL of the supernatants was used for LC-MS/MS analysis. For data analysis, all calculations were carried out using Microsoft Excel. Peak areas were determined from extracted ion chromatograms. The in vitro half-life (t1/2) of parent compound was determined by regression analysis of the percent parent disappearance vs. time curve. The in vitro half-life (in vitro t1/2) was determined from the slope value: in vitro t1/2=0.693/k. […] Scaling factors for in vivo intrinsic clearance prediction using human hepatocytes are listed as: liver weight (g liver/kg body weight): 25.7; hepatocyte concentration (10^6 cells/g liver): 99; scaling factor: 2544.3."}, "pooled human hepatocytes": {"tested_on": "pooled human hepatocytes", "assay": "Human hepatocyte clearance study", "assay_type": "in vitro ADME", "settings": "human hepatocytes 0.5x10^6 viable cells/mL, 120 min", "experimental": "as §1"}, "[3]": {"assay": "Mouse PK study (iv 3 mpk, po 30 mpk)", "assay_type": "in vivo, male CD1 mice", "settings": "male, CD1, whole blood; for clearance: 3 mg/kg, IV 3 mpk, read-out: Mouse IV 3 mpk CL (converted); for AUC(0-t) / half-life: 30 mg/kg, PO 30 mpk; for AUC(0-t): read-out: Mouse PO 30 mpk AUC last; for half-life: read-out: Mouse PO 30 mpk T½ (converted)", "experimental": "Mouse PK study (iv 3 mpk, and po 30 mpk) was conducted using male CD1 mice (25-33 g) obtained from SLAC Laboratory Animal Co., LTD of Shanghai). Compound is prepared with the following formulation: 5% DMSO, 5% Solutol HS 15 and 9% HPBCD in water. For intravenous (iv) dose at 3 mpk and oral (po) dose at 30 mpk, the compound is formulated at the concentration […] and […], respectively. Compound formulation is freshly made prior to dosing in the morning. Oral dosing is via the use of oral gavage at 10 mL/kg, while iv dosing is via tail vein at 5 mL/kg. Three mice are used for each dosing route per compound per dose. Serial blood sample (30 uL whole blood at each time point) is collected into the K2EDTA tubes via facial vein at the following time points: 5 min (for iv route only), 30 min, 1, 2, 4, 6, 8, 12 and 24 hours. For each blood sample collected, immediately transfer 20 uL blood sample and mix well with 60 uL water in a 96-well plate (whole blood:water=1:3 v/v). Diluted blood samples are stored at −80C freezer until analysis. For analysis, an aliquot of 20 μL sample was added with 200 μL IS (Glipizide, 100 ng/mL) in ACN. The mixture was vortexed for 2 min and centrifuged at 5800 rpm for 10 min. An aliquot of 2 μL supernatant was injected for LC-MS/MS analysis. Compound at 2.0-3000 ng/mL in CD1 mouse diluted blood is used for calibration curve. Pharmacokinetic data are obtained and described in the table below: […]"}, "[4]": {"tested_on": "breast cancer cell line MCF-7", "assay": "MCF-7 cell growth study (celltiter-glo luminescent viability assay)", "assay_type": "cell-based, human", "settings": "Homo sapiens, MCF7, 144 h, MCF-7 cells, 6 days incubation; read-out: IC50 (nM), cell growth inhibition", "quoted_text": "Compound activity was analyzed using celltiter-glo luminescent viability assay (Promega #G7572) in breast cancer cell line MCF-7. Cells grown in log phase are trypsinized and seeded into a 96-well cell culture plate at a density of 2×10^3 per well and incubated overnight at 37° C. with 5% CO2 in humidified culture chamber. The next day, compounds were prepared in 100% DMSO and were serially diluted and added into cells in the following final concentrations: 316, 100, 31.6, 10, 3.16, 1, 0.32, 0.1, 0.03, 0.01, 0.003 and 0.001 nM. As a control, same volume and concentration of DMSO vehicle control solution was added to the control wells in each plate. The cells were incubated with compounds at 37° C. culture chamber for 6 days. Promega's celltiter-glo kit was used to analyze the cell viability, according to manufacture's instruction. Briefly, fifty microliter of celltiter-glo reagent was added to each well, plate (covered with aluminum foil) was gently vibrated for 10 min to induce cell lysis at room temperature. Luminescence was measured using a SPECTRAmax i3 reader."}, "xMCF-7 xenograft tumor": {"tested_on": "xMCF-7 xenograft tumor", "assay": "Human breast cancer xMCF-7 xenograft efficacy study in mouse", "assay_type": "in vivo", "settings": "for tumor growth inhibition and tumor regression (FIG. 2): 2 mg/kg orally, once daily for 28 days, start at tumor ~250 mm^3", "experimental": "To investigate the in vivo efficacy of SERD compounds described in this application, female nude mice were inoculated with human ER+ breast cancer cells xMCF-7. xMCF-7 cells are derived from MCF-7 (ATCC) tumor grown in the nude mice. Briefly, female balb/c mice (age 6-7 wk) were first inoculated subcutaneously on the back with estrogen pellet (0.5 mg, 60-day release from Innovative Research of America, Cat #SE-121). Two days later, each mouse was inoculated with 5 million xMCF-7 cells, prepared as 0.2 ml cell suspension in 1:1 mix of Eagle's MEM to cell culture media and Matrigel (Corning Cat #354234) for each injection. After tumor size reached ˜235 mm^3, mice with xMCF-7 xenograft tumor are randomized to 10 mice per group and started receiving drug treatment.\nIn another xMCF-7 study, treatment initiated when tumor reached ˜250 mm^3. Each drug was given at 2 mg/kg orally, once daily for 28 days."}, "ER [5]": {"biological_target": "T1, ER", "settings": "intramuscular injection monthly; cited from earlier work"}},
  "data": [
    {"smiles": "C[C@@H]1Cc2c([nH]c3ccccc23)[C@@H](c2c(F)cc(/C=C/C(=O)O)cc2F)N1CC(C)(C)F", "note": "[AZD9496, reference compound]", "values": [
      {"measurement": "MCF7 ER Degradation at 4 hr (%)", "setting": "ER [1]", "value": 17, "unit": "%"},
      {"measurement": "MCF7 ER Degradation at 24 hr (%)", "setting": "ER [1]", "value": 23, "unit": "%"},
      {"measurement": "hepatocyte CLint at 1 µM", "setting": "[2]", "value": 9, "unit": "µL/min/1e6 cells"},
      {"measurement": "half-life at 1 µM", "setting": "[2]", "value": 2.55, "unit": "h"},
      {"measurement": "CLint scaled at 1 µM", "setting": "[2]", "value": 23, "unit": "mL/min/kg"},
      {"measurement": "Human Hepatocyte Remaining Percentage @ 120 min (%)", "setting": "pooled human hepatocytes", "value": 58, "unit": "%"},
      {"measurement": "clearance", "setting": "[3]", "value": 19, "unit": "mL/min/kg"},
      {"measurement": "AUC(0-t)", "setting": "[3]", "value": 85, "unit": "µM·h"},
      {"measurement": "half-life", "setting": "[3]", "value": 3.5, "unit": "h"}
    ]},
    {"smiles": "C[C@@H]1Cc2c([nH]c3ccccc23)[C@@H](c2c(Cl)cc(/C=C/C(=O)O)cc2Cl)N1CC(C)(F)F", "note": "[Compound 25]", "values": [
      {"measurement": "IC50", "setting": "[4]", "value": 0.8, "unit": "nM"},
      {"measurement": "clearance", "setting": "[3]", "value": 1.33, "unit": "mL/min/kg"},
      {"measurement": "AUC(0-t)", "setting": "[3]", "value": 658, "unit": "µM·h"},
      {"measurement": "half-life", "setting": "[3]", "value": 62, "unit": "h"},
      {"measurement": "tumor growth inhibition and tumor regression (FIG. 2)", "setting": "xMCF-7 xenograft tumor", "value": "more efficacious than AZD9496"},
      {"measurement": "tumor growth inhibition (tumor volume change, FIG. 1)", "setting": "xMCF-7 xenograft tumor; oral 5 mg/kg or 30 mg/kg once a day for 28 days, fulvestrant 250 mg/kg subcutaneously, start at tumor ~235 mm^3", "value": "more efficacious in vivo than fulvestrant, GDC-0810 and AZD9496"}
    ]},
    {"smiles": "C[C@@H]1Cc2c([nH]c3ccccc23)[C@@H](c2c(F)cc(OCCN3CC(CF)C3)cc2Cl)N1CC(C)(F)F", "note": "[Compound 12]", "values": [
      {"measurement": "IC50", "setting": "[4]", "value": 0.26, "unit": "nM"},
      {"measurement": "tumor growth inhibition and tumor regression (FIG. 2)", "setting": "xMCF-7 xenograft tumor", "value": "more efficacious than AZD9496"}
    ]},
    {"smiles": "C[C@]12CC[C@@H]3c4ccc(O)cc4C[C@@H](CCCCCCCCC[S+]([O-])CCCC(F)(F)C(F)(F)F)[C@H]3[C@@H]1CC[C@@H]2O", "note": "(stereo partly shown) [Fulvestrant, reference compound]", "values": [
      {"measurement": "MCF7 ER Degradation at 4 hr (%)", "setting": "ER [1]", "value": 29, "unit": "%"},
      {"measurement": "MCF7 ER Degradation at 24 hr (%)", "setting": "ER [1]", "value": 15, "unit": "%"},
      {"measurement": "hepatocyte CLint at 1 µM", "setting": "[2]", "value": 33, "unit": "µL/min/1e6 cells"},
      {"measurement": "half-life at 1 µM", "setting": "[2]", "value": 0.7, "unit": "h"},
      {"measurement": "CLint scaled at 1 µM", "setting": "[2]", "value": 86, "unit": "mL/min/kg"},
      {"measurement": "Human Hepatocyte Remaining Percentage @ 120 min (%)", "setting": "pooled human hepatocytes", "value": 12, "unit": "%"},
      {"measurement": "ER degradation in clinical samples", "setting": "ER [5]", "value": "~50", "unit": "%"}
    ]},
    {"smiles": "CC/C(=C(/c1ccc(/C=C/C(=O)O)cc1)c1ccc2[nH]ncc2c1)c1ccc(F)cc1Cl", "note": "[GDC-0810, reference compound]", "values": [
      {"measurement": "hepatocyte CLint at 1 µM", "setting": "[2]", "value": 24.6, "unit": "µL/min/1e6 cells"},
      {"measurement": "half-life at 1 µM", "setting": "[2]", "value": 0.933, "unit": "h"},
      {"measurement": "CLint scaled at 1 µM", "setting": "[2]", "value": 63, "unit": "mL/min/kg"},
      {"measurement": "Human Hepatocyte Remaining Percentage @ 120 min (%)", "setting": "pooled human hepatocytes", "value": 24, "unit": "%"},
      {"measurement": "clearance", "setting": "[3]", "value": 15.3, "unit": "mL/min/kg"},
      {"measurement": "AUC(0-t)", "setting": "[3]", "value": 80, "unit": "µM·h"},
      {"measurement": "half-life", "setting": "[3]", "value": 2.9, "unit": "h"}
    ]}
  ]
}
